According to patent publication US20140271680A1, “METHODS AND PHARMACEUTICAL COMPOSITIONS FOR TREATMENT OF PULMONARY HYPERTENSION” (UNIVERSITE PARIS-EST CRETEIL VAL DE MARNE, priority 2011, published 2014):

Columns and labels:
[1] = tested on: CCR5 knock-in (KICCR5) mice; test: hypoxic pulmonary hypertension in CCR5 knock-in mice (chronic hypoxia 9% O2); format: in vivo; details: Maraviroc 200 mg/kg/day
From the text: To assess the inhibitory effects of the CCR5 antagonist Maraviroc on development of pulmonary hypertension in mice, the inventors used CCR5 knock-in mice in which the murine CCR5 gene was replaced by the human CCR5 gene. CCR5 knock-in mice were used in these experiments because Maraviroc binds to the human CCR5 but not to the murine CCR5 protein.
Male mice (12 months old), were exposed to chronic hypoxia (9% O2) in a ventilated chamber (Biospherix, New York, N.Y.). Mice were anesthetized with ketamine (60 mg/Kg) and xylazine (10 mg/Kg) intraperitoneally. A 26-gauge needle connected to a pressure transducer was inserted into the right ventricle, and right ventricular systolic pressure (RVSP) was recorded. After the assessment of hemodynamic parameters, all mice were sacrificed by cardiac puncture and exsanguinations. The heart was dissected out and weighed for calculation of the Fulton index (ratio of right ventricular free wall weight over the sum of the septum plus left ventricular free wall weights: RV/LV+S). The left lung was inflated and fixed with formalin buffer for assessments of pulmonary vessel muscularization and of PA-SMC proliferation using Ki67 immunostaining

wild-type (WT) mice = test: hypoxic pulmonary hypertension in wild-type mice (chronic hypoxia 9% O2); format: in vivo; details: Maraviroc 200 mg/kg/day
[2] = tested on: human pulmonary-artery smooth muscle cells (PA-SMCs); test: CCL5-stimulated proliferation of human pulmonary-artery smooth muscle cells (MTT assay); format: cell-based; details: 48 h with CCL5 and Maraviroc, FIG. 4
Procedure: The effects of Maraviroc on cell proliferation was investigated in primary cultures of human pulmonary-artery smooth muscle cells (PA-SMCs) collected from lung tissue samples of patients undergoing lung resection surgery. Cell proliferation was assessed by using the tetrazolium salt (MTT) assay (Sigma, Lyon, France) during conditions of stimulation with the CCR5 ligand CCL5. Human PA-SMCs were seeded onto 24-well for 48 h. PA-SMCs were synchronized for 48 h in media without serum prior cell proliferation stimulation in presence of CCL5 or CCL5 and Maraviroc. 48 hours after, MTT (100 μg/mL) was added and incubated for 4 h. The media was removed and crystals formed were dissolved in […] of dimethylsulfoxide (DMSO, Sigma) and the mixture was shaken for a few minutes to achieve complete dissolution. Aliquots (200 μL) of the resulting solutions were transferred to 96-well plates and absorbance was recorded at 520 nm using the Microplate Spectrophotometer System.

Compound: Cc1nnc(C(C)C)n1[C@@H]1C[C@H]2CC[C@@H](C1)N2CC[C@H](NC(=O)C1CCC(F)(F)CC1)c1ccccc1 [Maraviroc, 4,4-difluoro-N-{(1S)-3-[3-(3-isopropyl-5-methyl-4H-1,2,4-triazol-4-yl)-8-azabicyclo[3.2.1]oct-8-yl]-1-phenylpropyl}cyclohexanecarboxamide]
- Right ventricular systolic pressure (RVSP) ([1]; FIG. 3A): reduction
- Fulton index ([1]; FIG. 3B): reduction
- % of muscularized vessels ([1]; FIG. 3C): reduction
- proliferative cells detected by ki67 immunostaining ([1]; FIG. 3D): reduction
- Right ventricular systolic pressure (RVSP) (wild-type (WT) mice; FIG. 3A): not in WT mice
- proliferative cells detected by ki67 immunostaining (wild-type (WT) mice; FIG. 3D): not in WT mice
- Proliferation of human pulmonary artery smooth muscle cells stimulated by the CCR5 ligand CCL5 [2]: significantly reduced
